The values below come from the supplement of paper PMC3974653.

Counter-ions that a name gives are not always drawn.

This assay has as its system MTT (mouse pheochromocytoma). Kind of assay: IC50 of cell viability (ATP content). The settings on record: (24 or 48 h). Summed up: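 Library compounds in DMSO (23 nl by pintool, 8 concentrations, final 0.5 nM to 46 µM) were applied for 24 or 48 hrs to MTT mouse pheochromocytoma cells that had been cultured overnight at 37°C, 5% CO2 in white 1536-well plates. Cell viability was measured by CellTiter-Glo ATP luminescence, read after 15 minutes, with positive-control wells set at 100% and DMSO wells at 0%. A four-parameter logistic fit of the normalised signals yielded the IC50.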
`O=C(Nc1ccc(O)cc1)c1ccccc1O` [Osalmid]: the “IC50 of cell viability” value was > 46 µM.
As for `Cc1onc(-c2ccccc2)c1C(=O)N[C@@H]1C(=O)N2C1SC(C)(C)[C@@H]2C(=O)[O-]` (some centres undefined) [Oxacillin sodium salt], the “IC50 of cell viability” value is > 46 µM.
Take `CCN(CC)CCc1nc(-c2ccccc2)no1.O=C(O)CC(O)(CC(=O)O)C(=O)O` [Oxalamine citrate salt]: the “IC50 of cell viability” value was > 46 µM.
The figure for `CC(C)NC[C@H]1CCc2cc(CO)c([N+](=O)[O-])cc2N1` [Oxamniquine] is > 46 µM; for `O=c1[nH]c2ccccc2n1CCCN1CCN(C(c2ccccc2)c2ccccc2)CC1` [Oxatomide] it is > 46 µM; for `O=C1Nc2ccc(Cl)cc2C(c2ccccc2)=NC1O` (centres undefined) [Oxazepam] it is > 46 µM.
With `CC[C@H]1C[C@H]2[C@@H]3CCC/4=C/C(=O)CC[C@@H]4[C@H]3CC[C@]2(C)[C@H]1O` [Oxendolone], the “IC50 of cell viability” value was > 46 µM.
The figure for `CN(C(=O)CN(CCO)CC(=O)N(C)C(C)(C)Cc1ccccc1)C(C)(C)Cc1ccccc1` [Oxethazaine] is > 46 µM; for `COC(=O)Nc1nc2ccc([S+]([O-])c3ccccc3)cc2[nH]1` (centres undefined) [Oxfendazole] it is > 46 µM.
For `NC(=O)CN1CC(O)CC1=O` (centres undefined) [Oxiracetam], the “IC50 of cell viability” value was > 46 µM.
In the case of `C=CCOc1ccccc1OC[C@H](O)CNC(C)C` [Oxprenolol hydrochloride], the “IC50 of cell viability” value was > 46 µM.
For `COc1ccc(C(=O)c2ccccc2)c(O)c1` [Oxybenzone], the “IC50 of cell viability” value is > 46 µM.
`CCN(CC)CC#CCOC(=O)[C@@](O)(c1ccccc1)C1CCCCC1` [Oxybutynin chloride]: the “IC50 of cell viability” value was > 46 µM.
For `C[C@]12C/C(=C/O)C(=O)C[C@@H]1CC[C@@H]1[C@@H]2CC[C@@]2(C)[C@H]1CC[C@]2(C)O` [Oxymetholone], the “IC50 of cell viability” value was > 46 µM.
For `COc1cccc(C(=O)CCN[C@@H](C)[C@H](O)c2ccccc2)c1` [Oxyphedrine] the value was > 46 µM; for `CCCC[C@H]1C(=O)N(c2ccccc2)N(c2ccc(O)cc2)C1=O` [Oxyphenbutazone], > 46 µM.
With `CC(=O)Oc1ccc(C2(c3ccc(OC(C)=O)cc3)C(=O)Nc3ccccc32)cc1` [Oxyphenisatin Acetate], the “IC50 of cell viability” value is > 46 µM.
For `CN(C)[C@H]\1[C@@H]2[C@@H](O)[C@H]3\C(=C(O)/[C@]2(O)C(=O)\C(=C1O)C(N)=O)C(=O)C4=C(C=CC=C4O)[C@@]3(C)O` [Oxytetracycline HCl], the “IC50 of cell viability” value is > 46 µM.
The figure for `O=C(O)/C=C\c1ccc(Cn2ccnc2)cc1` [Ozagrel hydrochloride] is > 46 µM; for `CNC(C)C(O)c1ccc(O)cc1` (centres undefined) [P-HYDROXYEPHEDRINE HYDROCHLORIDE] it is > 46 µM; for `CNC(C)[C@@H](O)c1ccc(O)cc1` (some centres undefined) [P-HYDROXYEPHEDRINE HYDROCHLORIDE] it is > 46 µM.
On to `CCC(=O)c1ccc(O)cc1` [P-HYDROXYPROPIOPHENONE], for which the “IC50 of cell viability” value is > 46 µM.
As to `Nc1ccc(N)cc1` [P-PHENYLENEDIAMINE], the “IC50 of cell viability” value was > 46 µM.
As for `O=C1c2cccc3c2[C@@H](CCC3)CN1[C@@H]1CN2CCC1CC2` [PALONOSETRON HYDROCHLORIDE], the “IC50 of cell viability” value is > 46 µM.
As for `Cn1c(=O)c2[nH]c(Br)nc2n(C)c1=O` [PAMABROM], the “IC50 of cell viability” value was > 46 µM.
For `CCOC(=O)Cn1cccc1-c1nc(-c2ccc(OC)cc2)c(-c2ccc(OC)cc2)s1` [PAMICOGREL] the value was > 46 µM.
With `CC(=O)OC1C([N+]2(C)CCCCC2)C[C@H]2C3CC[C@H]4C[C@H](OC(C)=O)C([N+]5(C)CCCCC5)CC4(C)[C@@H]3CCC12C` (some centres undefined) [PANCURONIUM], the “IC50 of cell viability” value was > 46 µM.
The figure for `CC(C)(CO)[C@@H](O)C(=O)NCCC(=O)NCCSSCCNC(=O)CCNC(=O)[C@H](O)C(C)(C)CO` [PANTETHINE] is > 46 µM; for `COc1ccnc(C[S+]([O-])c2nc3cc(OC(F)F)ccc3[nH]2)c1OC` (centres undefined) [PANTOPRAZOLE] it is > 46 µM.
As to `Clc1ccc(Cl)cc1` [PARADICHLOROBENZENE], the “IC50 of cell viability” value was > 46 µM.
As to `CC1OC(C)OC(C)O1` (centres undefined) [PARALDEHYDE], the “IC50 of cell viability” value was > 46 µM.
For `c1ccc2c(c1)Sc1ccccc1N2CCN1CCCC1` [PARATHIAZINUM] the value was > 46 µM.
With `CCOc1ccc(C(=O)OCCN(CC)CC)cc1` [PARETHOXYCAINE HYDROCHLORIDE], the “IC50 of cell viability” value is > 46 µM.
With `C#CCOC(C(=O)OCCN(C)C)(c1ccccc1)c1ccccc1` [PARGEVERINUM], the “IC50 of cell viability” value was > 46 µM.
For `NC[C@@H]1O[C@H](OC2[C@@H](CO)O[C@@H](OC3[C@H](O)[C@H](N)C[C@H](N)[C@H]3OC3O[C@H](CO)[C@@H](O)[C@H](O)[C@@H]3N)[C@H]2O)C(N)[C@H](O)[C@@H]1O` (some centres undefined) [PAROMOMYCIN SULFATE] the value was > 46 µM.
With `C[C@H]1COc2c(C3(N)CC3)c(F)cc3c(=O)c(C(=O)O)cn1c23` [PAZUFLOXACIN], the “IC50 of cell viability” value was > 46 µM.
For `CC(C(=O)O)c1ccc(/C=C2\CCCCC2=O)cc1` (centres undefined) [PELUBIPROFEN] the value was > 46 µM; for `Nc1nc(O)c2c(CCc3ccc(C(=O)N[C@H](CCC(=O)[O-])C(=O)[O-])cc3)c[nH]c2n1` [PEMETREXED], > 46 µM; for `Cc1cccn2c(=O)c(-c3nnn[n-]3)cnc12` [PEMIROLAST POTASSIUM], > 46 µM.
On to `Nc1nc(O)c(-c2ccccc2)o1` [PEMOLINE], for which the “IC50 of cell viability” value is > 46 µM.
The figure for `CN1C(C)(C)CCCC1(C)C.O=C(O)C(O)C(O)C(=O)O` [PEMPIDINE TARTRATE] is > 46 µM; for `Nc1nc(O)c2ncn(CCC(CO)CO)c2n1` [PENCICLOVIR SODIUM] it is > 46 µM.
As for `CCCCCC1Nc2cc(C(F)(F)F)c([S+](N)(=O)[O-])cc2[S+](=O)([O-])N1` (centres undefined) [PENFLUTIZIDE], the “IC50 of cell viability” value was > 46 µM.
For `CC(C)(S)[C@@H](N)C(=O)O` [PENICILLAMINE] the value was > 46 µM; for `CCCCCC(O)C1C(=O)OC(C)C(O)C=CC=CC=CC=CC=C(C)C(O)C(O)C(O)CC(O)CC(O)CC(O)CC(O)CC1O` (centres undefined) [PENTAMYCIN], > 46 µM.
`OCCOC[C@H]1O[C@H](OCCO)[C@H](OCCO)[C@@H](OCCO)[C@@H]1OCCO.OC[C@H]1O[C@H](O)[C@H](O)[C@@H](O)[C@@H]1O` [PENTASTARCH]: the “IC50 of cell viability” value is > 46 µM.
In the case of `CNC1C(O)C(OC2C(N)CC(N)C(OC3OC(CN)=CCC3N)C2O)OCC1(C)O` (centres undefined) [PENTISOMICINUM], the “IC50 of cell viability” value was > 46 µM.
Regarding `CCCC(C)C1(CC)C(=O)N\C(=N/C1=O)O` (centres undefined) [PENTOBARBITAL], the “IC50 of cell viability” value was > 46 µM.
Take `C1CCc2nnnn2CC1` [PENTYLENETETRAZOLE]: the “IC50 of cell viability” value was > 46 µM.
Take `Cc1c(N)nc([C@@H](CC(N)=O)NC[C@H](N)C(N)=O)nc1C(=O)N[C@H](C(=O)N[C@@H](C)[C@@H](O)[C@@H](C)C(=O)N[C@H](C(=O)NCCc1nc(-c2nc(C(=O)NCCCN[C@H](C)c3ccccc3)cs2)cs1)[C@H](C)O)[C@@H](O[C@H]1O[C@@H](CO)[C@H](O)[C@@H](O)[C@H]1O[C@H]1O[C@@H](CO)[C@@H](O)[C@H](OC(N)=O)[C@H]1O)c1cnc[nH]1` [PEPLOMYCIN SULFATE]: the “IC50 of cell viability” value is > 46 µM.
As to `CC(C)CC(=O)N[C@H](C(=O)N[C@H](C(=O)N[C@@H](CC(C)C)[C@@H](O)CC(=O)N[C@@H](C)C(=O)N[C@@H](CC(C)C)[C@@H](O)CC(=O)O)C(C)C)C(C)C` [PEPSTATINUM], the “IC50 of cell viability” value was > 46 µM.
For `CC(=O)OO` [PERACETIC ACID] the value was > 46 µM; for `FC(F)(F)C(F)(F)C(F)(F)C(F)(F)C(F)(F)C(F)(F)F` [PERFLEXANE], > 46 µM.
Regarding `FC1(F)C(F)(F)C(F)(F)C2(F)C(F)(F)C(F)(F)C(F)(F)C(F)(F)C2(F)C1(F)F` (centres undefined) [PERFLUNAFENUM], the “IC50 of cell viability” value was > 46 µM.
Regarding `CCCN1C[C@H](CSC)C[C@@H]2c3cccc4[nH]cc(c34)C[C@H]21` [PERGOLIDE METHANESULFONATE], the “IC50 of cell viability” value is > 46 µM.
As to `CC1(C)C(\C=C(/Cl)Cl)C1C(=O)OCC2=CC=CC(OC3=CC=CC=C3)=C2` (centres undefined) [PERMETHRIN], the “IC50 of cell viability” value is > 46 µM.
Turning to `C=C(Nc1ccc(OCC)cc1)Nc1ccc(OCC)cc1` [PHENACAINE HYDROCHLORIDE], the “IC50 of cell viability” value is > 46 µM.
Regarding `NC(=O)NC(=O)Cc1ccccc1` [PHENACEMIDE], the “IC50 of cell viability” value was > 46 µM.
`NC(=O)NNc1ccccc1` [PHENICARBAZIDUM]: the “IC50 of cell viability” value is > 46 µM.
